From patent US7109354B2, “Thiophene amidines, compositions thereof, and methods of treating complement-mediated diseases and conditions” (3-Dimensional Pharmaceuticals, Inc., priority 2002, dated 2006)
Structures can show the parent of a compound that is named as a salt.

molecular target: T1, Activated human C1s (Homo sapiens, UniProt P09871); test: In vitro inhibition of C1s (Ki determination, C1s-catalyzed hydrolysis of Z-Gly-Arg-S-Bzl, DTNB readout); format: biochemical; conditions: substrate Z-Gly-Arg-S-Bzl 45 μM, DTNB 200 μM, C1s 2.3 nM, pH 7.5, 37° C., absorbance at 405 nm
T1 construct: purchased Calbiochem (La Jolla, Calif.)
T1 sequence (P09871 438-688 limits assumed): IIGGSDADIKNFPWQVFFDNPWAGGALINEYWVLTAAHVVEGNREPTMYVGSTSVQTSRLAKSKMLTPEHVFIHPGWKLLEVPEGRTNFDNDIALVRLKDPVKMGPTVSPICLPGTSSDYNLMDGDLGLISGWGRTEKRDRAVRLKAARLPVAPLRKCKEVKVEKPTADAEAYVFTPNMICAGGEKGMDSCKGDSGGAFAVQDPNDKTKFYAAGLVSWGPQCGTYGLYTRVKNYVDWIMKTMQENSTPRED
T1 sequence (P09871 16-437 partner limits assumed): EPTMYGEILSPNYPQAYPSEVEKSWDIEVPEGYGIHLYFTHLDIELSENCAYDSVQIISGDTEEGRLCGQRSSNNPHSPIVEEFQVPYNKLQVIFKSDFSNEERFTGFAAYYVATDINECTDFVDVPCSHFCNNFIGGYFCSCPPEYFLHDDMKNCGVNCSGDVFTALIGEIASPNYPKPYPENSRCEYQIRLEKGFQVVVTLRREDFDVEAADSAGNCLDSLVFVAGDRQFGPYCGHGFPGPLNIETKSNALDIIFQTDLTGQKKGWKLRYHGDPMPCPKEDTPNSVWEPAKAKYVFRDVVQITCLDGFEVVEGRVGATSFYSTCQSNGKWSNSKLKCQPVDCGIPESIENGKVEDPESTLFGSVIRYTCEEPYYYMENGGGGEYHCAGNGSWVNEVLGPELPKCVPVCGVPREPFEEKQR

Ki, 6 to 23 nM:
CSc1sc(C(=N)N)cc1S(=O)(=O)c1cccc(-c2ccc(N)cc2C)c1 [Example 220, 4-(4′-Amino-2′-methyl-biphenyl-3-sulfonyl)-5-methylsulfanyl-thiophene-2-carboxamidine bis-trifluoroacetate]
CSc1sc(C(=N)N)cc1S(=O)(=O)c1cccc(-c2c(C)cc(O)cc2C)c1 [Example 224, 4-(4′-Hydroxy-2′,6′-dimethyl-biphenyl-3-sulfonyl)-5-methylsulfanyl-thiophene-2-carboxamidine trifluoroacetate]
CSc1sc(C(=N)N)cc1S(=O)(=O)c1cccc(-c2ccc(NC(N)=O)cc2C)c1 [Example 228, 5-Methylsulfanyl-4-(2 ′-methyl-4′-ureido-biphenyl-3-sulfonyl)-thiophene-2-carboxamidine trifluoroacetate]
CSc1sc(C(=N)N)cc1S(=O)(=O)c1cccc(-c2ccc(NC(=O)[C@@H](N)CCC(=O)O)cc2C)c1 [Example 231, 4-Amino-4-[3′-(5-carbamimidoyl-2-methylsulfanyl-thiophene-3-sulfonyl)-2-methyl-biphenyl-4-ylcarbamoyl]-butyric acid bis-trifluoroacetate]
CSc1sc(C(=N)N)cc1S(=O)(=O)c1cccc(-c2ccc(NC3=NCCN3)cc2C)c1 [Example 233, 4-[4′-(4,5-Dihydro-1H-imidazol-2-ylamino)-2′-methyl-biphenyl-3-sulfonyl]-5-methylsulfanyl-thiophene-2-carboxamidine bis-trifluoroacetate]
CSc1sc(C(=N)N)cc1S(=O)(=O)c1cccc(-c2c(C)cc(NC(=N)N)cc2[N+](=O)[O-])c1 [Example 236, 4-(4′-Guanidino-2′-methyl-6′-nitro-biphenyl-3-sulfonyl)-5-methylsulfanyl-thiophene-2-carboxamidine bis-trifluoroacetate]
CSc1sc(C(=N)N)cc1S(=O)(=O)c1cccc(-c2c(C)cc(NC(=N)N)cc2N)c1 [Example 237, 4-(6′-Amino-4′-guanidino-2′-methyl-biphenyl-3-sulfonyl)-5-methylsulfanyl-thiophene-2-carboxamidine bis-trifluoroacetate]
COC(=O)CCSCC(=O)Nc1cc(NC(=N)N)cc(C)c1-c1cccc(S(=O)(=O)c2cc(C(=N)N)sc2SC)c1 [Example 238, 3-{[3′-(5-Carbamimidoyl-2-methylsulfanyl-thiophene-3-sulfonyl)-4-guanidino-6-methyl-biphenyl-2-ylcarbamoyl]-methylsulfanyl}-propionic acid methyl ester bis-trifluoroacetate]
CSc1sc(C(=N)N)cc1S(=O)(=O)c1cccc(-c2c(C)cc(NC(=N)N)cc2NC(=O)CSCCC(=O)O)c1 [Example 239, 3-{[3′-(5-Carbamimidoyl-2-methylsulfanyl-thiophene-3-sulfonyl)-4-guanidino-6-methyl-biphenyl-2-ylcarbamoyl]-methylsulfanyl}-propionic acid bis-trifluoroacetate]
CSc1sc(C(=N)N)cc1S(=O)(=O)c1cccc(-c2c(C)cccc2NC(=O)NCCCCCC(=O)O)c1 [Example 240, 6-{3-[3′-(5-Carbamimidoyl-2-methylsulfanyl-thiophene-3-sulfonyl)-6-methyl-biphenyl-2-yl]-ureido}-hexanoic acid trifluoroacetate]
CSc1sc(C(=N)N)cc1S(=O)(=O)c1cccc(-c2c(C)cccc2NC(=O)NCCc2ccccc2)c1 [Example 242, 4-[2′-Methyl-6′-(3-phenethyl-ureido)-biphenyl-3-sulfonyl]-5-methylsulfanyl-thiophene-2-carboxamidine trifluoroacetate]
CSc1sc(C(=N)N)cc1S(=O)(=O)c1cccc(-c2c(C)cccc2NC(=O)CSCC(N)=O)c1 [Example 246, 2-{[3′-(5-Carbamimidoyl-2-methylsulfanyl-thiophene-3-sulfonyl)-6-methyl-biphenyl-2-ylcarbamoyl]-methylsulfanyl}-acetamide trifluoroacetate]
COc1cc(C)c(-c2cccc(S(=O)(=O)c3cc(C(=N)N)sc3SC)c2)c(NC(=O)CSCCC(=O)O)c1 [Example 252, 3-{[3′-(5-Carbamimidoyl-2-methylsulfanyl-thiophene-3-sulfonyl)-4-methoxy-6-methyl-biphenyl-2-ylcarbamoyl]-methylsulfanyl}-propionic acid trifluoroacetate]
COc1cc(C)c(-c2cccc(S(=O)(=O)c3cc(C(=N)N)sc3SC)c2)c(NC(=O)CS(C)(=O)=O)c1 [Example 254, N-[3′-(5-Carbamimidoyl-2-methylsulfanyl-thiophene-3-sulfonyl)-4-methoxy-6-methyl-biphenyl-2-yl]-2-methanesulfonyl-acetamide trifluoroacetate]
COc1cc(C)c(-c2cccc(S(=O)(=O)c3cc(C(=N)N)sc3SC)c2)c(NC(=O)CCCCCS(C)(=O)=O)c1 [Example 255, 6-Methanesulfonyl-hexanoic acid[3′-(5-carbamimidoyl-2-methylsulfanyl-thiophene-3-sulfonyl)-4-methoxy-6-methyl-biphenyl-2-yl]-amide trifluoroacetate]
COc1cc(C)c(-c2cccc(S(=O)(=O)c3cc(C(=N)N)sc3SC)c2)c(NC(=O)CCS(C)(=O)=O)c1 [Example 256, N-[3′-(5-Carbamimidoyl-2-methylsulfanyl-thiophene-3-sulfonyl)-4-methoxy-6-methyl-biphenyl-2-yl]-3-methanesulfonyl-propionamide trifluoroacetate]
CSc1sc(C(=N)N)cc1S(=O)(=O)c1cccc(-c2c(C)cccc2NC(=O)CS(C)(=O)=O)c1 [Example 257, N-[3′-(5-Carbamimidoyl-2-methylsulfanyl-thiophene-3-sulfonyl)-6-methyl-biphenyl-2-yl]-2-methanesulfonyl-acetamide trifluoroacetate]
CSc1sc(C(=N)N)cc1S(=O)(=O)c1cccc(-c2c(C)cccc2NC(=O)C(C)S(C)(=O)=O)c1 (centres unmarked) [Example 258, N-[3′-(5-Carbamimidoyl-2-methylsulfanyl-thiophene-3-sulfonyl)-6-methyl-biphenyl-2-yl]-2-methanesulfonyl-propionamide trifluoroacetate]
CSc1sc(C(=N)N)cc1S(=O)(=O)c1cccc(-c2c(C)cc(NC(=N)N)cc2NC(=O)CCCS(C)(=O)=O)c1 [Example 260, N-[3′-(5-Carbamimidoyl-2-methylsulfanyl-thiophene-3-sulfonyl)-4-guanidino-6-methyl-biphenyl-2-yl]-4-methanesulfonyl-butyramide bis-trifluoroacetate]
CSc1sc(C(=N)N)cc1S(=O)(=O)c1cccc(-c2c(C)cc(NC(=N)N)cc2NC(=O)CCCCC(=O)O)c1 [Example 261, 5-[3′-(5-Carbamimidoyl-2-methylsulfanyl-thiophene-3-sulfonyl)-4-guanidino-6-methyl-biphenyl-2-ylcarbamoyl]-pentanoic acid bis-trifluoroacetate]
